ChEMBL document CHEMBL5385876, “Discovery of unglycosylated indolocarbazoles as ROCK2 isoform-selective inhibitors for the treatment of breast cancer metastasis” (Eur J Med Chem, 2023)
pIC50: −log10 of the molar value. Counter-ions that a name gives are not always drawn.

tested on: not listed separately; experiment: Toxicity in BALB/c nude mouse xenografted with human MDA-MB-231 cells harboring Luc-mcherry assessed as reduction in body weight at 15 mg/kg, iv administered once a day for 45 days; assay type: organism-based; settings: in vivo, 1080 h, time 45 day

For `C[C@@H](N)[C@H]1CC[C@H](C(=O)Nc2ccncc2)CC1` [Y-27632], the Activity was “Non-Toxic”.

tested on: SK-OV-3; experiment: Antiproliferative activity against human SK-OV-3 cells assessed as suppression of cell growth incubated for 72 hrs by SRB assay; assay type: functional, cell-based; settings: SK-OV-3, 72 h

`COc1cccc2c1C(=O)c1c(O)c3c(c(O)c1C2=O)C[C@@](O)(C(=O)CO)C[C@@H]3O[C@H]1C[C@H](N)[C@H](O)[C@H](C)O1` [DOXORUBICIN HYDROCHLORIDE] showed a pIC50 of 6.32.

molecular target: Rho-associated protein kinase 2 (Homo sapiens, UniProt O75116); experiment: Inhibition of N-terminal His10-StrepII tagged human ROCK2 catalytic domain (1 to 553 residues) expressed in Sf9 insect cells by HTRF assay; settings: not given
Sequence (O75116 whole entry, the tested form may be a part): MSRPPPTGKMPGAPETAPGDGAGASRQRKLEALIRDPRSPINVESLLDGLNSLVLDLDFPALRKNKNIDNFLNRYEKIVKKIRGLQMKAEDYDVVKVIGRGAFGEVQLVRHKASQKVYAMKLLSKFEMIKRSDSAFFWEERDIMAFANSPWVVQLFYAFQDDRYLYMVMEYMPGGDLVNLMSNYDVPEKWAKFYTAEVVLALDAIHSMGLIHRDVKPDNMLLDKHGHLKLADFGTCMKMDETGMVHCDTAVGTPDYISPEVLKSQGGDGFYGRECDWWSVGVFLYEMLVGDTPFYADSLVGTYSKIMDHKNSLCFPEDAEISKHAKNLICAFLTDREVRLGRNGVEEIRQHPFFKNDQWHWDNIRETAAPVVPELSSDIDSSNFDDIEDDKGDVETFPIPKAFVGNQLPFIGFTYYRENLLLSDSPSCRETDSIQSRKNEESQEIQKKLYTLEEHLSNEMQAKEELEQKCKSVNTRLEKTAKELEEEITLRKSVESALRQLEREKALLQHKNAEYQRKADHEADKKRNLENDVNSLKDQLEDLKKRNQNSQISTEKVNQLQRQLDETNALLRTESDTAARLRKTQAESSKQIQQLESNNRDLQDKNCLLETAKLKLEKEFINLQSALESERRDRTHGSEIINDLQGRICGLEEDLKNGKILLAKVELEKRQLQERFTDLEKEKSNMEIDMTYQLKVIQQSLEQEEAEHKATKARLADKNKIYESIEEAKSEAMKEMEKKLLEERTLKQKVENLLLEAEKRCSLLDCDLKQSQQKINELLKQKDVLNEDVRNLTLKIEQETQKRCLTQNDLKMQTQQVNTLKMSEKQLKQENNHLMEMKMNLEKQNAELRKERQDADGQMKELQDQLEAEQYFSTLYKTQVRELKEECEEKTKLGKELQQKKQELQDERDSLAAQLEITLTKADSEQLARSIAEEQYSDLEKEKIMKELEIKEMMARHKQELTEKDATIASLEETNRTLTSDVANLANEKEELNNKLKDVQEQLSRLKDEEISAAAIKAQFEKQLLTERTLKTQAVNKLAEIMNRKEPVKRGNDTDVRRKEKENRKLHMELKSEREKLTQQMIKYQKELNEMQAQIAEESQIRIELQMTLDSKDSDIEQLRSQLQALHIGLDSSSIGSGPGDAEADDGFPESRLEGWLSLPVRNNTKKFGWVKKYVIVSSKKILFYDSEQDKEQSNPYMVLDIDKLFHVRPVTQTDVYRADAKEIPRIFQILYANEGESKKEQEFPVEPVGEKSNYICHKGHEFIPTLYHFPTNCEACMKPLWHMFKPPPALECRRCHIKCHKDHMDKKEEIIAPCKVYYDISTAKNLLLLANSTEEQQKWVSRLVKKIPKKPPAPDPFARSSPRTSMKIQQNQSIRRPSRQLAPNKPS

Point of comparison: `C[C@]12O[C@H](C[C@]1(O)C(=O)O)n1c3ccccc3c3c4c(c5c6ccccc6n2c5c31)C(=O)NC4=O`, pIC50 6.52. Against it:
- O=C1NCc2c1c1c3cc(O)ccc3[nH]c1c1[nH]c3ccc(O)cc3c21 — 2.00 log units higher, 8.52
- CO[C@@H]1[C@H](O)[C@H](O)[C@H](C)O[C@H]1n1c2ccc(O)cc2c2c3c(c4c5ccccc5[nH]c4c21)CNC3=O — lower, < 6.30
- CO[C@@H]1[C@H](NC(C)=O)C[C@H]2O[C@]1(C)n1c3ccccc3c3c4c(c5c6ccccc6n2c5c31)C(=O)NC4 — within 0.2 log units, 6.47
- C[C@]12O[C@H](C[C@@H](N)[C@H]1O)n1c3ccccc3c3c4c(c5c6ccccc6n2c5c31)C(=O)NC4=O — within 0.2 log units, 6.44
- CO[C@@H]1C(=O)C[C@H]2O[C@]1(C)n1c3ccccc3c3c4c(c5c6ccccc6n2c5c31)C(=O)NC4 — lower, < 6.30
- CO[C@@H]1[C@@H](O)[C@@H](O)[C@H]2O[C@]1(C)n1c3ccccc3c3c4c(c5c6ccccc6n2c5c31)C(=O)NC4=O — lower, < 6.30
- COC(=O)[C@@]1(OC)C[C@H]2O[C@]1(C)n1c3ccccc3c3c4c(c5c6ccccc6n2c5c31)C(=O)NC4 — within 0.2 log units, 6.48
- C[C@@H]1O[C@@H](n2c3ccccc3c3c4c(c5c6ccccc6[nH]c5c32)CNC4=O)C[C@@H](NC=O)[C@H]1O — lower, < 6.30
- COc1cccc2[nH]c3c4[nH]c5ccccc5c4c4c(c3c12)C(=O)NC4=O — lower, < 6.30
- COc1ccc2[nH]c3c4[nH]c5ccccc5c4c4c(c3c2c1)CNC4=O — lower, < 6.30
- O=C1NCc2c1c1c3ccc(O)cc3[nH]c1c1[nH]c3ccccc3c21 — 1.12 log units higher, 7.64
- CC1NC(=O)c2c1c1c3ccccc3[nH]c1c1[nH]c3ccccc3c21 (stereo unspecified) — 1.43 log units lower, 5.09
- O=C1NCc2c1c1c3cccc(O)c3[nH]c1c1[nH]c3ccccc3c21 — within 0.2 log units, 6.59
- COC(=O)[C@]1(O)C[C@H]2O[C@]1(C)n1c3ccccc3c3c4c(c5c6ccccc6n2c5c31)C(=O)NC4 — lower, < 6.30
- Cc1ccc2[nH]c3c4[nH]c5ccccc5c4c4c(c3c2c1)C(=O)NC4=O — lower, < 6.30
- C[C@@H]1O[C@@H](n2c3ccccc3c3c4c(c5c6ccccc6[nH]c5c32)[C@H](O)NC4=O)[C@H](O)[C@H](O)[C@H]1O — lower, < 6.30
- CN[C@]1(C(=O)OC)C[C@H]2O[C@]1(C)n1c3ccccc3c3c4c(c5c6ccccc6n2c5c31)C(=O)NC4 — lower, < 6.30
- CO[C@@H]1[C@@H](O)[C@@H](O)[C@H]2O[C@]1(C)n1c3ccccc3c3c4c(c5c6ccccc6n2c5c31)C(=O)N[C@H]4OC — lower, < 6.30
- CO[C@@H]1[C@H](N(C)C(C)=O)C[C@H]2O[C@]1(C)n1c3ccccc3c3c4c(c5c6ccccc6n2c5c31)C(=O)NC4=O — 0.84 log units lower, 5.68
- O=C1NCc2c1c1c3ccccc3[nH]c1c1[nH]c3ccccc3c21 [STAUROSPORINONE] — lower, < 6.30
- CO[C@@H]1[C@H](O)C[C@H]2O[C@]1(C)n1c3ccccc3c3c4c(c5c6ccccc6n2c5c31)C(=O)NC4 — 1.42 log units lower, 5.10
- CO[C@@H]1[C@H](N(C)C=O)C[C@H]2O[C@]1(C)n1c3ccccc3c3c4c(c5c6ccccc6n2c5c31)C(=O)NC4 — 0.33 log units higher, 6.85
- COc1ccc2[nH]c3c4[nH]c5ccc(OC)cc5c4c4c(c3c2c1)CNC4=O — lower, < 6.30
- COc1cccc2c1[nH]c1c3[nH]c4ccccc4c3c3c(c21)C(=O)NC3=O — lower, < 6.30
- CNC(=O)C[C@H]1O[C@@](C)(C(=O)OC)n2c3ccccc3c3c4c(c5c6ccccc6n1c5c32)C(=O)NC4 — 0.95 log units lower, 5.57
- O=C1NC(=O)c2c1c1c3ccccc3[nH]c1c1[nH]c3ccc(O)cc3c21 — 0.35 log units lower, 6.17
- CC(=O)N[C@@H]1C[C@H](n2c3ccccc3c3c4c(c5c6ccccc6[nH]c5c32)CNC4=O)O[C@@H](C)[C@@H]1O — 0.95 log units lower, 5.57
- Cc1ccc2[nH]c3c4[nH]c5ccccc5c4c4c(c3c2c1)C(=O)NC4 — 0.26 log units lower, 6.26
- CO[C@H]1NC(=O)c2c1c1c3ccccc3n3c1c1c2c2ccccc2n1[C@@H]1O[C@@]3(C)[C@H](OC)[C@@H](O)[C@H]1O — lower, < 6.30
- C[C@@H]1O[C@@H](n2c3ccccc3c3c4c(c5c6ccccc6[nH]c5c32)CNC4=O)[C@H](O)[C@H](O)[C@H]1O — within 0.2 log units, 6.33
- O=C1NC(=O)c2c1c1c3ccccc3[nH]c1c1[nH]c3cc(O)ccc3c21 — 0.24 log units lower, 6.28
- CO[C@@H]1[C@H](NC=O)C[C@H]2O[C@]1(C)n1c3ccccc3c3c4c(c5c6ccccc6n2c5c31)C(=O)NC4 — lower, < 6.30

tested on: MDA-MB-231; experiment: Antiproliferative activity against human MDA-MB-231 cells assessed as suppression of cell growth incubated for 72 hrs by SRB assay; assay type: functional, cell-based; settings: MDA-MB-231, 72 h

With `COc1cccc2c1C(=O)c1c(O)c3c(c(O)c1C2=O)C[C@@](O)(C(=O)CO)C[C@@H]3O[C@H]1C[C@H](N)[C@H](O)[C@H](C)O1` [DOXORUBICIN HYDROCHLORIDE] the pIC50 was 6.00.
